Assay results as given in ChEMBL document CHEMBL5465560, “Selectivity Literature for EUbOPEN Chemogenomic Library” (2024).

Experiments:
[1] = molecular target: Mitogen-activated protein kinase 14 (Homo sapiens, UniProt Q16539); assay: Selectivity interaction (Kinase panel (KiNativ target engagement assay in Jurkat cells)) EUB0001635a MAPK14; format: cell-based; details: Selectivity number of off-targets 0.0, Selectivity number of targets 233.0, Source Knowledge https://www.sciencedirect.com/science/article/pii/S2451945619300674?via%3Dihub, at 1 µM
[2] = molecular target: T1, Inhibitor of nuclear factor kappa-B kinase subunit alpha (Homo sapiens) (UniProt O15111); assay: Selectivity interaction (KinomeScan (DiscoverX)) EUB0000666a CHUK; details: at 10 µM
T1 sequence (whole entry): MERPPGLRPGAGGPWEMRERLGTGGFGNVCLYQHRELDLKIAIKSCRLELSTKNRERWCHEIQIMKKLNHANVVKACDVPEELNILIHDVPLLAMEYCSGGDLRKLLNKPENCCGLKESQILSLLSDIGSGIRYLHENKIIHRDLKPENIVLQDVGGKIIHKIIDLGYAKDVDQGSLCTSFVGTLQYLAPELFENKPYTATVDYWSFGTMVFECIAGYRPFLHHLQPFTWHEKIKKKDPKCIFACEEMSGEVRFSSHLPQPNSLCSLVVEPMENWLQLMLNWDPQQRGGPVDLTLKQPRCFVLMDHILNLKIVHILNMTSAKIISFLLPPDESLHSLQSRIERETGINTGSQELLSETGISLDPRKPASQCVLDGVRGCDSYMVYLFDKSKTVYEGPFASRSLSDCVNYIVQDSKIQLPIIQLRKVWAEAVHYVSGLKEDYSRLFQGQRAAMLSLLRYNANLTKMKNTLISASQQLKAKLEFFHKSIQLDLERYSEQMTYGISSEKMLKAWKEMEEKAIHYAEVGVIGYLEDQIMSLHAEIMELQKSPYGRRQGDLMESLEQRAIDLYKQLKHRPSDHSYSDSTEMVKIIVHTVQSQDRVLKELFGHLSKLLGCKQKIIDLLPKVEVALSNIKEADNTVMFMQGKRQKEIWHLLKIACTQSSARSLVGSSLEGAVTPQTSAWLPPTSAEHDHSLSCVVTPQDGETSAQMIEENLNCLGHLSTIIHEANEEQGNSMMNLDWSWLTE

[3] = molecular target: Death-associated protein kinase 2 (Homo sapiens) (UniProt Q9UIK4); details: at 10 µM
[4] = molecular target: Ribosomal protein S6 kinase alpha-6 (Homo sapiens, UniProt Q9UK32); assay: Selectivity interaction (KinomeScan (DiscoverX)) EUB0000607a RPS6KA6; details: at 10 µM
[5] = Selectivity interaction (KinomeScan (DiscoverX)) EUB0000607a CDK2H; details: at 10 µM
[6] = molecular target: T2, Serine/threonine-protein kinase RIO3 (Homo sapiens) (UniProt O14730); assay: Selectivity interaction (KinomeScan (DiscoverX)) EUB0000607a RIOK3; details: at 10 µM
T2 sequence (whole entry): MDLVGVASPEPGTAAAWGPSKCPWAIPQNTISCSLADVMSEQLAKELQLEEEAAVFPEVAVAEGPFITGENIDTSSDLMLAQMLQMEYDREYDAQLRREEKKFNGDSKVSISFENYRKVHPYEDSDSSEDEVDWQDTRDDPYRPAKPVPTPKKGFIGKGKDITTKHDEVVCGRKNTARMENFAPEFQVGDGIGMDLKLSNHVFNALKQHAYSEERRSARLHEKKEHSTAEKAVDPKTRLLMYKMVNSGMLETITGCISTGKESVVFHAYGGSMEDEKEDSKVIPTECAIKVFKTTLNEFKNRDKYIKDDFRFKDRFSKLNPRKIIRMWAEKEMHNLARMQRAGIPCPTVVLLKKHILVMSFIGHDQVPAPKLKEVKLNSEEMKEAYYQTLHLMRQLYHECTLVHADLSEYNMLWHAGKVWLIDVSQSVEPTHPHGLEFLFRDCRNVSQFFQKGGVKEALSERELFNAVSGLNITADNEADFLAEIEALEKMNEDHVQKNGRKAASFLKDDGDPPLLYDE

[7] = molecular target: Leukocyte tyrosine kinase receptor (Homo sapiens, UniProt P29376); assay: Selectivity interaction (SelectScreen profiling (Invitrogen)) EUB0000607a LTK; details: at 2 µM
[8] = molecular target: MAP/microtubule affinity-regulating kinase 3 (Homo sapiens) (UniProt P27448); assay: Selectivity interaction (ActivX KiNativ screen (kinase selectivity in THP-1 cell lysates)) EUB0000639a MARK3; format: subcellular; details: lysate, at 0.2 µM
[9] = molecular target: T3, Mitogen-activated protein kinase kinase kinase 3 (Homo sapiens) (UniProt Q99759); assay: Selectivity interaction (ActivX KiNativ screen (kinase selectivity in THP-1 cell lysates)) EUB0000639a MAP3K3; format: subcellular; details: lysate, at 1 µM
T3 sequence (whole entry): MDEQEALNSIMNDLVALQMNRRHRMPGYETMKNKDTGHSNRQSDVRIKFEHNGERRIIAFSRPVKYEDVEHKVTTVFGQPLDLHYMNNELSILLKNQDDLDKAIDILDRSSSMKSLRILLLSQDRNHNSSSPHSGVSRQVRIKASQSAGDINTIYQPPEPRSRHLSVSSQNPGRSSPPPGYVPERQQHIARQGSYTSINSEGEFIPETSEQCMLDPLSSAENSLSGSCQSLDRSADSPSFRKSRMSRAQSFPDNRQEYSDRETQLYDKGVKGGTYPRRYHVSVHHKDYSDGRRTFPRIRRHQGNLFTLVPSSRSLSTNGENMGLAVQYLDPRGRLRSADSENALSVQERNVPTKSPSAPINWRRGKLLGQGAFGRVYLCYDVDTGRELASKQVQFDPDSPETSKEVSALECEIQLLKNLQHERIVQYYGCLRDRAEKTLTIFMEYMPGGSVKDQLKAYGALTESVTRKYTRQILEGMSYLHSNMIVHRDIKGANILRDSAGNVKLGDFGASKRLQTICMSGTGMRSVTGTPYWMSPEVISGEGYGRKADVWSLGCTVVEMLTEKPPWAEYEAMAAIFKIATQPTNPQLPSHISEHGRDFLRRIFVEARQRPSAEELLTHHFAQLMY

[10] = molecular target: Serine/threonine-protein kinase 32A (Homo sapiens) (UniProt Q8WU08); assay: Selectivity interaction (KinomeScan (DiscoverX)) EUB0000655a STK32A; details: at 10 µM
[11] = molecular target: T4, Dual specificity mitogen-activated protein kinase kinase 6 (Homo sapiens) (UniProt P52564); assay: Selectivity interaction (KinomeScan (DiscoverX)) EUB0000092b MAP2K6; details: at 10 µM
T4 sequence (whole entry): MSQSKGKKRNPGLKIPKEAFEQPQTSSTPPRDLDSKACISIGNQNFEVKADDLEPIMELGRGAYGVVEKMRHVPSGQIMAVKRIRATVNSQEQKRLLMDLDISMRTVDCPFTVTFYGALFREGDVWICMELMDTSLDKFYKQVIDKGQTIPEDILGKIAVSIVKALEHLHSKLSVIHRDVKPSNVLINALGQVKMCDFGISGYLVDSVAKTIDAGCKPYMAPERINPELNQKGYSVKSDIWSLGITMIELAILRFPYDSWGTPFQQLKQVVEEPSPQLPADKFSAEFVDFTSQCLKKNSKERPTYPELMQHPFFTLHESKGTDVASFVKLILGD

Sequence of Serine/threonine-protein kinase 32A (Homo sapiens) (Q8WU08 whole entry): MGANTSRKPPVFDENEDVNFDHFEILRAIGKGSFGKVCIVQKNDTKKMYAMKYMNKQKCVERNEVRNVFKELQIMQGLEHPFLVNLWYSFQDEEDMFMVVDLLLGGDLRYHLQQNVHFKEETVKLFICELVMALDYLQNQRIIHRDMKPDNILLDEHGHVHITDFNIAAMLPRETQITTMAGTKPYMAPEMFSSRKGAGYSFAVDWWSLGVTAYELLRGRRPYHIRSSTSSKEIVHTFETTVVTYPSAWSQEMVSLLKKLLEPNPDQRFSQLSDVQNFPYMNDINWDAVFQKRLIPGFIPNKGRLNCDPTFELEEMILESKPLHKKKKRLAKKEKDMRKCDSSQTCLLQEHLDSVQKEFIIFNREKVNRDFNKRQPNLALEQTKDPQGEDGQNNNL
Sequence of MAP/microtubule affinity-regulating kinase 3 (Homo sapiens) (P27448 whole entry, looked up): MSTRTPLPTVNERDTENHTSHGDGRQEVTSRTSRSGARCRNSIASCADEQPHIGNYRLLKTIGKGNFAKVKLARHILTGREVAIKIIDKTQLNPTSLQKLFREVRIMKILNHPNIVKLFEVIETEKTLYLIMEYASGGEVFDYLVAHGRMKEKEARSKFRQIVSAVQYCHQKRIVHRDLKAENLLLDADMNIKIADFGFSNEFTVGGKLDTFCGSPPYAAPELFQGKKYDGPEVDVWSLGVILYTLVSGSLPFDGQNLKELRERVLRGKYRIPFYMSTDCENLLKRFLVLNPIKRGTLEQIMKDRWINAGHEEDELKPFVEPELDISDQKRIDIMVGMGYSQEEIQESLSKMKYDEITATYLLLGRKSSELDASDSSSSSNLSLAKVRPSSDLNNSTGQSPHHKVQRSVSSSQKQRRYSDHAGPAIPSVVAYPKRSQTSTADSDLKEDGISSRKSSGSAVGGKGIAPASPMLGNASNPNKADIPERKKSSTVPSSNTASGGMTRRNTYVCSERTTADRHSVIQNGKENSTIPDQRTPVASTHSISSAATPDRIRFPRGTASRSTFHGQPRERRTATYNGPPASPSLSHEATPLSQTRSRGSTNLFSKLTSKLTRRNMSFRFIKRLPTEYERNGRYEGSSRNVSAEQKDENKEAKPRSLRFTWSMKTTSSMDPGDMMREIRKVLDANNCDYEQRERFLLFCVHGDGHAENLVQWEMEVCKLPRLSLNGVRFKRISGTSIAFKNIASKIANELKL
Sequence of Leukocyte tyrosine kinase receptor (P29376 whole entry): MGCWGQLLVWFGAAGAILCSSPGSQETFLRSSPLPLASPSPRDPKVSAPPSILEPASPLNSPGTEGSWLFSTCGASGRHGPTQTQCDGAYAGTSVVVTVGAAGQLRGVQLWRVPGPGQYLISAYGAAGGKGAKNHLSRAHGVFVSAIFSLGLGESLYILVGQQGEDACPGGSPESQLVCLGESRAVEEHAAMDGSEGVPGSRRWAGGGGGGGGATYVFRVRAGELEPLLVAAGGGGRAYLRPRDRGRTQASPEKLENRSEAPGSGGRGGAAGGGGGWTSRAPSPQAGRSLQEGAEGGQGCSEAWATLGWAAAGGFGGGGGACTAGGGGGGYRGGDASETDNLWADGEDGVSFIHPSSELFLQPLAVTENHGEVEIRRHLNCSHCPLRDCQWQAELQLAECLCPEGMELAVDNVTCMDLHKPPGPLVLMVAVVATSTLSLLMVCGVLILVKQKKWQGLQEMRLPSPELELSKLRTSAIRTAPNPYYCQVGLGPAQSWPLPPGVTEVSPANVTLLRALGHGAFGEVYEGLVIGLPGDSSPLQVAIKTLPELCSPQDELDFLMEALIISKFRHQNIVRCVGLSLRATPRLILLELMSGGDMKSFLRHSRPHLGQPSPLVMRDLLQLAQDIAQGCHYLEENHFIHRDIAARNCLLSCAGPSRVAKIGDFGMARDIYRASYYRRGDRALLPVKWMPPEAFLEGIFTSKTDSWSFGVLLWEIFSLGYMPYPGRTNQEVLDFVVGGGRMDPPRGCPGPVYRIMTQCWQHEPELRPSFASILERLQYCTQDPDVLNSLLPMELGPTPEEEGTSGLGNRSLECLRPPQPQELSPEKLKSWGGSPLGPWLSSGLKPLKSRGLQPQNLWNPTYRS
Sequence of Mitogen-activated protein kinase 14 (Q16539 whole entry): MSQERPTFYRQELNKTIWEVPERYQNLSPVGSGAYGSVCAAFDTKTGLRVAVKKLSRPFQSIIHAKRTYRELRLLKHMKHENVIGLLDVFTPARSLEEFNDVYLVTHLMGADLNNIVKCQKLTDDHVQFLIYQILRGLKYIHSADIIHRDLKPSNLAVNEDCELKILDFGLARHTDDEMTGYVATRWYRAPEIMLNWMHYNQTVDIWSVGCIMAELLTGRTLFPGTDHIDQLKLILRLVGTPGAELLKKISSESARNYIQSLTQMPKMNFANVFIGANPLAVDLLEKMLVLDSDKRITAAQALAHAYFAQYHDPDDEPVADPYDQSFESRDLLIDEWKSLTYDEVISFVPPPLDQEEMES
Sequence of Death-associated protein kinase 2 (Homo sapiens) (Q9UIK4 whole entry, looked up): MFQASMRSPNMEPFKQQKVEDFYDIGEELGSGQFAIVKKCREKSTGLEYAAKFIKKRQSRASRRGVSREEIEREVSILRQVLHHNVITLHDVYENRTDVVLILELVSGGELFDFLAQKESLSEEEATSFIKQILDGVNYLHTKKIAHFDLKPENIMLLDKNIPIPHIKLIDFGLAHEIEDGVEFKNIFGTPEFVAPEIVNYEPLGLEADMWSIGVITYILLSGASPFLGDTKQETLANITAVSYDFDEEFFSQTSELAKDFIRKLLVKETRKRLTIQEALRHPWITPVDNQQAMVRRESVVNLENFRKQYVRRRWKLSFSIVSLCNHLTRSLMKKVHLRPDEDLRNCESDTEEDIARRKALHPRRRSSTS
Sequence of Ribosomal protein S6 kinase alpha-6 (Q9UK32 whole entry): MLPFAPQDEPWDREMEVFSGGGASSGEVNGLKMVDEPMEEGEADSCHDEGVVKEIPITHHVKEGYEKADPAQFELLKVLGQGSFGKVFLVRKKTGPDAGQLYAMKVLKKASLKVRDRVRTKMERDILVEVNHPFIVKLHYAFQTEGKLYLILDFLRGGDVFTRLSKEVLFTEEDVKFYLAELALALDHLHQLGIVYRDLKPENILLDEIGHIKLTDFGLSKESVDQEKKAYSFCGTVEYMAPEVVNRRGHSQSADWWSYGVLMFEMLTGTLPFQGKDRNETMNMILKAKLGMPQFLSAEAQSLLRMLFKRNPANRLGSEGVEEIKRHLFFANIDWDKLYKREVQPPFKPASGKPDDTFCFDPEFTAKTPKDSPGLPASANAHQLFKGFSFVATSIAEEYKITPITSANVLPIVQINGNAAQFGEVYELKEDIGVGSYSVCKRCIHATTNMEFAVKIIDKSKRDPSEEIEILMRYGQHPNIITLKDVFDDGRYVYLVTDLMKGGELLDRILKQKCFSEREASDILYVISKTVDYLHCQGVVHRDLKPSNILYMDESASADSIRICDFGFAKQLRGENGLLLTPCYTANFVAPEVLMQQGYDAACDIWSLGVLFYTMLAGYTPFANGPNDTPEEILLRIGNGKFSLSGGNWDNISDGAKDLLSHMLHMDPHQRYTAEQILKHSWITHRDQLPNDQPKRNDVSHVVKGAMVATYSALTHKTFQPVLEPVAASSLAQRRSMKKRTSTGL

C=CC(=O)Nc1ccc(C(=O)Nc2[nH]nc3c2CN(C(=O)N[C@H](CN(C)C)c2ccccc2)C3(C)C)cc1
% of engagement [1]: -12.8%

O=C(NOC[C@H](O)CO)c1ccc(F)c(F)c1Nc1ccc(I)cc1F
% of control [2]: 100%

Cc1cc([C@@H](C)Nc2ccccc2C(=O)O)c2nc(N3CCOCC3)cc(=O)n2c1 [AZD-6482]
% of control [3]: 92%

CNC(=O)Nc1ccc(-c2nc(N3CC4CCC(C3)O4)c3cnn(C4CCC5(CC4)OCCO5)c3n2)cc1
% of control [4]: 84%
% of control [5]: 100%
% of control [6]: 100%
% of inhibition [7]: 8%

CC[C@@H]1[C@H](F)C(=O)N[C@@H]1COc1nccc2cc(C(N)=O)c(OC)cc12 [ZIMLOVISERTIB]
% of inhibition [8]: 2.7%
% of inhibition [9]: -7.9%

CN(C)CCOc1ccc(-c2nc(-c3ccncc3)c(-c3ccc4c(c3)CC/C4=N\O)[nH]2)cc1
% of control [10]: 85%

CCC(=O)N1CCN(c2ccc(-n3c(=O)ccc4cnc5ccc(-c6cnc7ccccc7c6)cc5c43)cc2C(F)(F)F)CC1
% of control [11]: 100%
